Legend:
[1] = biological target: T1, amyloid (aggregated Aβ1-40) (Homo sapiens, UniProt P05067); assay: Measurement of affinity with amyloid: inhibition of [125I]3′-I-BTA-0 binding; details: [125I]3′-I-BTA-0 400 pmol/L, amyloid 1 μmol/L, 22° C., 3 hours
T1 construct: Aβ1-40 (Peptide Institute, INC.) was dissolved in phosphate buffer (pH 7.4); purchased Peptide Institute, INC
Procedure: Affinity of the present compounds with amyloid was examined by the following in vitro binding tests.
(1) Aβ1-40 (Peptide Institute, INC.) was dissolved in phosphate buffer (pH 7.4) and shaken at 37° C. for 62-72 hours, to obtain a 1 mg/mL suspension of aggregated Aβ (hereinafter referred to as amyloid suspension in this Example).
(3) According to the method described in a literature (Wang, Y., et al., J. Labeled Compounds Radiopharmaceut. 44, 5239 (2001)), [^125I]2-(3′-iodo-4′-aminophenyl)benzothiazole (hereinafter referred to as […]) was prepared from a labeling precursor 2-(4′-aminophenyl)benzothiazole, and dissolved in ethanol.
(5) Samples in which [^125I]3′-I-BTA-0, each compound for evaluation and amyloid were dissolved in a 0.1% bovine serum albumin-containing phosphate buffer (pH 7.4) at final concentrations shown in Table 1-2 were prepared. The resulting samples were filled in each well (about 0.3 mL in volume) of a 96-well microplate.
(6) The microplate filled with the sample solutions was shaken at a given rate (400 rpm) at 22° C. for 3 hours. Then, each sample solution was filtered through a glass fiber filter (trade name: Mulutiscreen™-FC, manufactured by Millipore), to separate the [^125I]3′-I-BTA-0 attached to amyloid from the free [^125I]3′-I-BTA-0.
(7) The glass fiber filter used for the filtration of each sample solution was washed with a 0.1% bovine serum albumin-containing phosphate buffer (pH 7.4) (0.5 mL×5), and radioactivity of the glass fiber filter was measured with an autowell gamma system (manufactured by Aloka, Type: ARC-301B).
(8) Separately, a solution of containing 15 μmol/L of 6-Me-BTA-2, […] of [^125I]3′-I-BTA-0 and 1 μmol/L of Aβ1-40 were prepared and subjected to the same procedures as described above in (6) and (7) to measure a radioactivity level. The measured radioactivity level was defined as the background radioactivity level, and used in the calculation of the inhibition ratio (hereinafter referred to as BG).
(9) Using the radioactivity levels measured above in (7) and (8), the inhibition ratio was determined by the following formula (1-1).
A graph in which values converted by probit transformation from the obtained inhibition ratios were plotted relative to logarithms of concentrations of compounds for evaluation was prepared to obtain an approximate straight line by the least square method. Using the line, the concentration of each compound for evaluation was determined, at which the radioactivity level is half of the level of the sample free from each compound for evaluation, and was defined as a 50% inhibition concentration of each compound (hereinafter referred to as IC50% value). Using the value as an indicator, affinity of each compound for evaluation with amyloid (aggregated Aβ1-40) was evaluated.

[2] = system: Salmonella typhimurium TA98; assay: Reverse mutation test (Ames test), TA98; assay type: cell-based
Procedure: (§1) In order to examine mutagenicity of Compound I-1, I-2, I-4 and I-5, reverse mutation test using Salmonella typhimurium TA98 and TA100 (hereinafter referred to as Ames test) was conducted.
(§2) The test was conducted without addition of S9mix and with addition of S9mix. Dimethylsulfoxide was used as a negative control. A positive control was 2-(2-furyl)-3-(5-nitro-2-furyl)acrylamide in case S9mix was not added, and 2-aminoanthracene in case S9mix was added.
(§3) The amount of each sample to be added to the test plate was 7 dosages (geometric ratio 4) with the maximum dose being 1250 μg/plate for Compounds I-1 and I-5, and 7 dosages (geometric ratio 3) with the maximum dose being 5000 μg/plate for Compounds I-2 and I-4. After a sample to be examined and a strain (TA98 or TA100), or a sample to be examined, S9mix and the strain were mixed together, the mixture was multilayered using soft agar on a medium of a test plate, and then incubated at 37° C. for 48 hours.

[3] = system: Salmonella typhimurium TA100; assay: Reverse mutation test (Ames test), TA100; assay type: cell-based
Procedure: as §1, §2, §3

[4] = system: Salmonella typhimurium TA98 and TA100; assay: Reverse mutation test (Ames test), overall judgment; assay type: cell-based; details: TA98 and TA100, with and without S9mix
Procedure: as §1, §2, §3
The numbers of reverse mutation colonies of the respective strains in the group treated with Compounds I-1, I-2, I-4 and I-5 were less than two times the number in the group treated with the negative control, regardless of addition of S9mix and the addition amount of a sample to be examined. From the aforementioned results, it is judged that Compounds I-1, I-2, I-4 and I-5 are negative in the Ames test and have no mutagenicity.

[5] = biological target: T2, amyloid (amylin) (Homo sapiens, UniProt P10997); assay: Inhibition of binding of Thioflavin T to amyloid derived from amylin; details: Thioflavin T 5 μmol/L
T2 construct: Amylin (human) (manufactured by Wako) was dissolved in phosphate buffer (pH 7.4); purchased Wako
T2 sequence (P10997 34-70 limits assumed): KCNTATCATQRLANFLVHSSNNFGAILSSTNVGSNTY
Procedure: Amylin is an amyloid accumulating in pancreas of type II diabetes.
(3) The amyloid suspension was dissolved in 50 mM phosphate buffer (pH 7.4) at a concentration of amylin of 15 μM.
(4) Samples in which each compound for evaluation and amyloid were dissolved in a 50 mM phosphate buffer (pH 7.4) at final concentrations shown in Table 2-1 were prepared.
(5) A sample in which 100 μL of 50 mM phosphate buffer (pH 7.4) and 50 μL of 50 mM glycin-NaOH buffer (pH 8.5) were mixed was made as a blank, and subjected to the same procedure as in (4) and used for a calculation of inhibition ratio.
(6) The microplate filled with the sample solutions was left to stand still for 30 hours. Then, fluorescence strength of each sample solution was measured (measurement conditions: excitation wavelength of 446 nm, emission wavelength of 490 nm) with microplate reader (type: SPECTRA MAX GEMINI XS, manufactured by Molecular Devices) (hereinafter, A denotes the fluorescence strength in a sample with zero (0) concentration of each compound for evaluation, and B denotes the fluorescence strength in a sample with 1.5 μmol/L or higher concentration of each compound for evaluation).
(7) Using the fluorescence strength measured above in (6), the following formula (2-1): […]
was used to determine the inhibition ratio.

[6] = biological target: T1, amyloid (aggregated Aβ1-40); assay: Measurement of binding to amyloid (radiolabelled compound, glass fiber filtration); details: amyloid 2.5-1000 nmol/L, 22° C., 3 hours
Procedure: (7) A relation between the amount of the Compound I-6 binding to amyloid and the amount of added amyloid was evaluated from the measurement results of (6). Unspecific binding was determined using a sample to which the Compound I-2 (non-RI labeled compound) was added to become 100 nM (at a final concentration) above in (4) (Example I-7).
(8) Using [^125I]-IMPY synthesized in the above Reference Example I-6, the same procedure as the above (2) to (6) were carried out to obtain control data (Comparative Example I-1).
A relation between the concentration of amyloid in the sample solution and the radioactive count on the glass fiber filter measured above in (6) is shown in FIG. 1-11. The radioactivity on the glass fiber was increased proportionally to the concentration (addition amount) of amyloid (Example I-7). […] Therefore, the radioactive count on the glass fiber is a value reflecting the amount of the compound attached to amyloid, and the slope of the graph which plotted the radioactive count relative to the concentration of amyloid is a value which can be an index representing the intensity of binding to amyloid.

[7] = Transferability into brain and clearance; assay type: in vivo, male Wistar rats; details: rats, intravenous injection
Text: Three animals were used for Experiment I-20 and Comparative Experiment I-9, and two animals were used for Experiment I-21 at the respective time points.

[8] = biological target: T3, amyloid (aggregated Aβ1-40) injected into amygdaloid nucleus (Homo sapiens, UniProt P05067); assay: Confirmation of imaging of amyloid in brain (autoradiogram of brain slice, Aβ1-40 injected rat); assay type: in vivo, male Wistar rat; details: tail vein, 16 MBq equivalent, brain removed 60 minutes after injection
T3 construct: Aβ1-40 (Peptide Institute, INC.) was dissolved in phosphate buffer (pH 7.4); purchased Peptide Institute, INC
Procedure: The following experiment was carried out in order to examine whether amyloid in brain can be imaged by the compound of the present invention.
(1) Aβ1-40 (manufactured by Peptide Institute, INC.) was dissolved in phosphate buffer (pH 7.4) and shaken at 37° C. for 72 hours, to obtain 1 mg/mL of a suspension of aggregated Aβ (hereinafter referred to as amyloid suspension in this Example).
(2) 25 μL (corresponding to 25 μg) of the amyloid suspension was injected into an amygdaloid nucleus on one side of a male Wistar rat (7-week old). As a control, 25 μL of a phosphate buffered physiological saline solution (pH 7.4) was injected into an amygdaloid nucleus on the other side of the rat. The rats were examined 1 day after the injection of the amyloid suspension and the phosphate buffered physiological saline solution (pH 7.4).
This solution was injected into the rat through the tail vein (dosage: 0.5 mL, dosed radioactivity: 16 MBq equivalent).
(4) Brain was removed 60 minutes after the injection to prepare a brain slice of 10 μm in thickness with a microtome (type: CM3050S, manufactured by LEICA). The brain slice was exposed to an imaging plate for 20 hours, and then image analysis was carried out by use of a Bio-imaging Analyzer (type: BAS-2500; manufactured by FUJIFILM Corporation).

[9] = Partition coefficient based on the octanol extraction method; assay type: physicochemical; details: octanol / 10 mmol/L phosphate buffer (pH 7.4)
Procedure: After the mixture was centrifuged with a low-speed centrifuge (2000 rpm×60 min.), the octanol layer and the water layer were sampled each in an amount of 1 mL, and subjected to measurement of radioactivity count with an autowell gamma system (manufactured by Aloka, Type: ARC-301B). Using the obtained radioactivity count, log Poctanol was calculated in accordance with the equation (1-2).

[10] = International Publication No. WO03/106439; cited from earlier work
[11] = [125I]-labeled, normal mice; cited from earlier work

T1 sequence (P05067 672-711 limits assumed): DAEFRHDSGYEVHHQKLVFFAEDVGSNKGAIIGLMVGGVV
T3 sequence (P05067 672-711): as the sequence (P05067 672-711 limits assumed) above

Question: For `FCCCOc1ccc(-c2cn3cc(Br)ccc3n2)cc1` [Compound I-1, 6-bromo-2-[4′-(3″-fluoropropoxy)phenyl]imidazo[1,2-a]pyridine], which IC50 [1] is on record?
Answer: 1.4 nM

Question: What about the “Mutagenicity, TA98, With addition of S9mix” value [2] of the same compound?
Answer: Negative

Question: What about the “Mutagenicity, TA98, Without addition of S9mix” value [2] of the same compound?
Answer: Negative

Question: And the “Mutagenicity, TA100, With addition of S9mix” value [3]?
Answer: Negative

Question: What about the “Mutagenicity, TA100, Without addition of S9mix” value [3] of the same compound?
Answer: Negative

Question: What about the Ames test judgment [4] of the same compound?
Answer: negative

Question: And the “Inhibition ratio (%) of binding of amyloid (amylin) to Thioflavin T” value (“Inhibition ratio (%)” below) ([5]; compound 1.5 μmol/L)?
Answer: 14.5%

Question: And the “Inhibition ratio (%)” value ([5]; compound 15 μmol/L)?
Answer: 37.0%

Question: And the “Inhibition ratio (%)” value ([5]; compound 30 μmol/L)?
Answer: 43.7%

Question: With `FCCCOc1ccc(-c2cn3cc(I)ccc3n2)cc1` [Compound I-2, 2-[4′-(3″-fluoropropoxy)phenyl]-6-iodoimidazo[1,2-a]pyridine] as the compound, how does the IC50 [1] read?
Answer: 0.9 nM

Question: What about the “Mutagenicity, TA98, With addition of S9mix” value [2] of the same compound?
Answer: Negative

Question: What about the “Mutagenicity, TA98, Without addition of S9mix” value [2] of the same compound?
Answer: Negative

Question: And the “Mutagenicity, TA100, With addition of S9mix” value [3]?
Answer: Negative

Question: What about the “Mutagenicity, TA100, Without addition of S9mix” value [3] of the same compound?
Answer: Negative

Question: And the Ames test judgment [4]?
Answer: negative

Question: And the “Inhibition ratio (%)” value ([5]; compound 1.5 μmol/L)?
Answer: 28.9%

Question: And the “Inhibition ratio (%)” value ([5]; compound 15 μmol/L)?
Answer: 26.6%

Question: What about the “Inhibition ratio (%)” value ([5]; compound 30 μmol/L) of the same compound?
Answer: 28.2%

Question: Which IC50 [1] does the source give for `FCCOc1ccc(-c2cn3cc(Br)ccc3n2)cc1` [Compound I-3, 6-bromo-2-[4′-(2″-fluoroethoxy)phenyl]imidazo[1,2-a]pyridine] here?
Answer: 1.8 nM

Question: Which IC50 [1] does the source give for `FCCCOc1ccc(-c2cn3cc(I)cnc3n2)cc1` [Compound I-5, 2-[4′-(3″-fluoropropoxy)phenyl]-6-iodoimidazo[1,2-a]pyrimidine] here?
Answer: 55.4 nM

Question: What about the “Mutagenicity, TA98, With addition of S9mix” value [2] of the same compound?
Answer: Negative

Question: What about the “Mutagenicity, TA98, Without addition of S9mix” value [2] of the same compound?
Answer: Negative

Question: And the “Mutagenicity, TA100, With addition of S9mix” value [3]?
Answer: Negative

Question: What about the “Mutagenicity, TA100, Without addition of S9mix” value [3] of the same compound?
Answer: Negative

Question: And the Ames test judgment [4]?
Answer: negative

Question: For `FCCCOc1ccc(-c2cn3cc([125I])ccc3n2)cc1` [Compound I-6, 2-[4′-(3″-fluoropropoxy)phenyl]-6-[^125I]iodoimidazo[1,2-a]pyridine], which “slope of radioactive count on glass fiber relative to concentration of amyloid (index of intensity of binding to amyloid)” value [6] is on record?
Answer: greater than the slope for [^125I]-IMPY

Question: For `FCCCOc1ccc(-c2cn3cc([123I])ccc3n2)cc1` [Compound I-7, 2-[4′-(3″-fluoropropoxy)phenyl]-6-[^123I]iodoimidazo[1,2-a]pyridine], which “Radioactive distribution per unit weight in brain, After 2 min.” value [7] is on record?
Answer: 1.10 % ID/g

Question: What about the “Radioactive distribution per unit weight in brain, After 5 min.” value [7] of the same compound?
Answer: 0.75 % ID/g

Question: What about the “Radioactive distribution per unit weight in brain, After 30 min.” value [7] of the same compound?
Answer: 0.12 % ID/g

Question: What about the “Radioactive distribution per unit weight in brain, After 60 min.” value [7] of the same compound?
Answer: 0.05 % ID/g

Question: And the “accumulation of radioactivity on intracerebral amyloid (autoradiogram)” value [8]?
Answer: possesses a property of accumulating on intracerebral amyloid and a capability of imaging intracerebral amyloid

Question: For `[18F]CCCOc1ccc(-c2cn3cc(Br)ccc3n2)cc1` [Compound I-8, 6-bromo-2-[4′-(3″-[^18F]fluoropropoxy)-phenyl]imidazo[1,2-a]pyridine], which logPoctanol value [9] is on record?
Answer: 2.0

Question: And the “Radioactive distribution per unit weight in brain, After 2 min.” value [7]?
Answer: 1.20 % ID/g

Question: And the “Radioactive distribution per unit weight in brain, After 5 min.” value [7]?
Answer: 0.75 % ID/g

Question: And the “Radioactive distribution per unit weight in brain, After 30 min.” value [7]?
Answer: 0.18 % ID/g

Question: And the “Radioactive distribution per unit weight in brain, After 60 min.” value [7]?
Answer: 0.12 % ID/g

Question: With `CC(=C(C#N)C#N)c1ccc2cc(N(C)CCF)ccc2c1` [FDDNP, 2-(1-{6-[(2-fluoroethyl)(methyl)amino]-2-naphthyl}ethylidene)malononitrile] as the compound, how does the reverse mutation test [10] read?
Answer: positive

Question: For `CN(C)c1ccc(-c2nc3ccc(I)cc3o2)cc1` [IBOX, 6-iodo-2-[4′-(N,N-dimethylamino)phenyl]benzoxazole], which “clearance from normal tissues” value [11] is on record?
Answer: insufficient in clearance from normal tissues

Question: With `CN(C)c1ccc(-c2nc3ccc(I)cc3s2)cc1` [TZDM, 6-iodo-2-[4′-(N,N-dimethylamino)phenyl]benzothiazole] as the compound, how does the “clearance from normal tissues” value [11] read?
Answer: insufficient in clearance from normal tissues

Question: With `CN(C)c1ccc(/C=C/c2ccc(I)cc2)cc1` [m-I—SB, (E)-4-dimethylamino-4′-iodostilbene] as the compound, how does the “clearance from normal tissues” value [11] read?
Answer: insufficient in clearance from normal tissues
